In patent US9593149B2, “Amylin and calcitonin receptor agonist” (Novo Nordisk A/S, priority 2014, dated 2017):
Values after ≈ are worked out from the molar mass of the structure shown. Numbered stars: 1 amine (or outer) side, 2 acyl side, 3 side chain; on linkers, the order of the positions; unused ones are H or OH. Side chains are listed from the residue outwards. Peptide text beside a SMILES is read from it. * marks the point of attachment. C20 diacid = O=C(O)CCCCCCCCCCCCCCCCCCC(=O)*; C16 diacid = O=C(O)CCCCCCCCCCCCCCC(=O)*; γGlu = O=C(O)[C@H](CCC(=O)[*:2])N[*:1]; AEEA = NCCOCCOCC(=O)O

What was measured:
[1] = Assay (IV) determination of solubility; type: physicochemical
Procedure: Assay (IV)—Determination of Solubility
The mimylin peptide was dissolved in water at ˜500 nmol/ml and mixed 1:1 with a series of buffers (100 mM glycylglycine pH 3.0, 100 mM glycylglycine pH 4.0, 100 mM glycylglycine pH 5.0, 100 mM bistrispropane pH 6.0, 100 mM bistrispropane pH 6.5, 100 mM bistrispropane pH 7.0, 100 mM bistrispropane pH 7.5, 100 mM bistrispropane pH 8.0).

[2] = target: T1, rat calcitonin receptor (Rattus norvegicus, UniProt P32214); assay: Assay (VIII) binding to the rat calcitonin receptor; settings: membranes; read-out: rCT-R binding IC50
T1 construct: expressed in transfected cells; host or cells: BHK tk'ts 13 (transient, FuGENE 6)
T1 sequence (P32214 25-479 isoform P32214-2 limits assumed): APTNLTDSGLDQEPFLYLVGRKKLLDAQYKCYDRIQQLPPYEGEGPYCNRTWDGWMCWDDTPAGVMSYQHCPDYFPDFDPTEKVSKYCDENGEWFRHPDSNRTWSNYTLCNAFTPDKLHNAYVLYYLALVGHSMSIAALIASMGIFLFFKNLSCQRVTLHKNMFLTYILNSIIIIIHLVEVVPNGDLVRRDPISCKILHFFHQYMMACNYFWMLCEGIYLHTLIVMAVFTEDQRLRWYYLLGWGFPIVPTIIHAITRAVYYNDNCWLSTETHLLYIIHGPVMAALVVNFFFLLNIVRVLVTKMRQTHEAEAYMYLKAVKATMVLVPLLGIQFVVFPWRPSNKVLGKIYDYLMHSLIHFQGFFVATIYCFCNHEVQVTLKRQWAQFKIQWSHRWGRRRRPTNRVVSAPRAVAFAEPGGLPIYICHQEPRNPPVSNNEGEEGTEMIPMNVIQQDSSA
Procedure: The morning after, the plates were washed three times in HBSS (4° C.), and lyzed in Lysis buffer (0.1 M NaOH), 1% SDS. Scintillation cocktail (MicroScint40®) was added and the plates were shaken at 500 rpm for a short period. The plate was incubated at room temperature in the dark for 1 hour and Read on a TopCounter™ (Packard). The IC50 was calculated using (one site binding competition analysis) GraphPad Prism5 as a measure of receptor affinity. Assay (VIII)—Determination of Binding to the Rat Calcitonin Receptor
The assay was performed as described above (Assay (VII)—Determination of binding to the human calcitonin receptor) with the exception that we used membranes prepared from BHK tk'ts 13 cells that were transiently transfected with the rat calcitonin receptor. The BHK tk'ts 13 cells were transiently transfected with rat calcitonin receptor using FuGENE® 6 (Roche), according to the manufacturer's recommendations. Cells were grown in DMEM with 10% FBS and 1% Pen/Strep.

SMILES	Solubility ([1]; pH 3.0)	Solubility ([1]; pH 4.0)	Solubility ([1]; pH 5.0)	Solubility ([1]; pH 6.0)	Solubility ([1]; pH 6.5)	Solubility ([1]; pH 7.0)	Solubility ([1]; pH 7.5)	Solubility ([1]; pH 8.0)	IC50 [2] [nM]	solubility at 18 h ([1]; pH 4.0) [µM]
CC(C)C[C@H](NC(=O)[C@H](C)NC(=O)[C@H](C)NC(=O)[C@@H](NC(=O)[C@H](CO)NC(=O)[C@H](CC(C)C)NC(=O)[C@H](CCC(=O)O)NC(=O)[C@H](CO)NC(=O)[C@H](C)NC(=O)CC[C@H](NC(=O)CCCCCCCCCCCCCCCCCCC(=O)O)C(=O)O)[C@@H](C)O)C(=O)NCC(=O)N[C@@H](Cc1cnc[nH]1)C(=O)N[C@@H](CC(C)C)C(=O)N[C@@H](CO)C(=O)N[C@@H](C)C(=O)N[C@@H](CCC(=O)O)C(=O)N[C@@H](CC(C)C)C(=O)N[C@@H](Cc1cnc[nH]1)C(=O)N[C@@H](CCC(=O)O)C(=O)N[C@@H](CC(C)C)C(=O)N[C@@H](C)C(=O)N[C@H](C(=O)N[C@@H](CC(C)C)C(=O)N1CCC[C@H]1C(=O)N[C@@H](CCCNC(=N)N)C(=O)N[C@H](C(=O)N[C@@H](CCC(=O)O)C(=O)N[C@H](C(=O)NCC(=O)N[C@@H](CO)C(=O)NCC(=O)N[C@@H](CO)C(=O)N1CCC[C@H]1C(N)=O)[C@@H](C)O)[C@@H](C)O)[C@@H](C)O [compound 72, [N-terminal(C20 diacid-gGlu), des1, 12H, 30S, 31G]mimylin] ({C20 diacid-γGlu}-ASELSTAALGHLSAELHELATLPRTETGSGSP-NH2)	≧200 μM	≧200 μM	≧200 μM	≧200 μM	≧200 μM	≧200 μM	≧200 μM	≧200 μM	0.085	
CC(C)C[C@H](NC(=O)CNC(=O)[C@H](CO)NC(=O)[C@H](C)NC(=O)CC[C@H](NC(=O)CCCCCCCCCCCCCCCCCCC(=O)O)C(=O)O)C(=O)N[C@@H](CO)C(=O)N[C@H](C(=O)N[C@@H](C)C(=O)N[C@H](C(=O)N[C@@H](CC(C)C)C(=O)NCC(=O)N[C@@H](CCCNC(=N)N)C(=O)N[C@@H](CC(C)C)C(=O)N[C@@H](CO)C(=O)N[C@@H](CCC(N)=O)C(=O)N[C@@H](CCC(=O)O)C(=O)N[C@@H](CC(C)C)C(=O)N[C@@H](Cc1cnc[nH]1)C(=O)N[C@@H](CCC(=O)O)C(=O)N[C@@H](CC(C)C)C(=O)N[C@@H](CCC(N)=O)C(=O)N[C@H](C(=O)N[C@@H](Cc1ccc(O)cc1)C(=O)N1CCC[C@H]1C(=O)N1CCC[C@H]1C(=O)N[C@H](C(=O)N[C@@H](CCC(=O)O)C(=O)N[C@H](C(=O)NCC(=O)N[C@@H](CO)C(=O)NCC(=O)N[C@H](C(=O)N[C@@H](Cc1ccc(O)cc1)C(N)=O)[C@@H](C)O)[C@@H](C)O)[C@@H](C)O)[C@@H](C)O)[C@@H](C)O)[C@@H](C)O [compound 128, [N-terminal(C20 diacid-gGlu), des1, 4G, 9T, 15Q, 21Q, 23Y, 25P, 30S, 31G, 32T, 33Y]mimylin] ({C20 diacid-γGlu}-ASGLSTATLGRLSQELHELQTYPPTETGSGTY-NH2)	≧200 μM		≧200 μM	≧200 μM	≧200 μM	≧200 μM	≧200 μM	≧200 μM	0.028	25 (≈ 95.5 µg/mL)
CC(C)C[C@H](NC(=O)[C@H](C)NC(=O)[C@H](C)NC(=O)[C@@H](NC(=O)[C@H](CO)NC(=O)[C@H](CC(C)C)NC(=O)[C@H](CCC(=O)O)NC(=O)[C@H](CO)NC(=O)[C@H](C)N)[C@@H](C)O)C(=O)NCC(=O)N[C@@H](CCCNC(=N)N)C(=O)N[C@@H](CC(C)C)C(=O)N[C@@H](CO)C(=O)N[C@@H](C)C(=O)N[C@@H](CCC(=O)O)C(=O)N[C@@H](CC(C)C)C(=O)N[C@@H](Cc1cnc[nH]1)C(=O)N[C@@H](CCCCNC(=O)CC[C@H](NC(=O)CCCCCCCCCCCCCCCCCCC(=O)O)C(=O)O)C(=O)N[C@@H](CC(C)C)C(=O)N[C@@H](C)C(=O)N[C@H](C(=O)N[C@@H](CC(C)C)C(=O)N1CCC[C@H]1C(=O)N[C@@H](CCCNC(=N)N)C(=O)N[C@H](C(=O)N[C@@H](CCC(=O)O)C(=O)N[C@H](C(=O)NCC(=O)N[C@@H](CO)C(=O)NCC(=O)N[C@@H](CO)C(=O)N1CCC[C@H]1C(N)=O)[C@@H](C)O)[C@@H](C)O)[C@@H](C)O [compound 54, [des1, 19K(C20 diacid-gGlu), 30S, 31G]mimylin] (H-ASELSTAALGRLSAELHK([γGlu-C20 diacid])LATLPRTETGSGSP-NH2)	≧200 μM	≧200 μM	≧200 μM	≧200 μM	≧200 μM	≧200 μM	≧200 μM	≧200 μM	0.044	
CC(C)C[C@H](NC(=O)[C@H](C)NC(=O)[C@H](C)NC(=O)[C@@H](NC(=O)[C@H](CO)NC(=O)[C@H](CC(C)C)NC(=O)[C@H](CCC(=O)O)NC(=O)[C@H](CO)NC(=O)[C@H](C)NC(=O)CC[C@H](NC(=O)CCCCCCCCCCCCCCC(=O)O)C(=O)O)[C@@H](C)O)C(=O)NCC(=O)N[C@@H](CCCNC(=N)N)C(=O)N[C@@H](CC(C)C)C(=O)N[C@@H](CO)C(=O)N[C@@H](C)C(=O)N[C@@H](CCC(=O)O)C(=O)N[C@@H](CC(C)C)C(=O)N[C@@H](Cc1cnc[nH]1)C(=O)N[C@@H](CCC(=O)O)C(=O)N[C@@H](CC(C)C)C(=O)N[C@@H](C)C(=O)N[C@H](C(=O)N[C@@H](CC(C)C)C(=O)N1CCC[C@H]1C(=O)N[C@@H](CCCNC(=N)N)C(=O)N[C@H](C(=O)N[C@@H](CCC(=O)O)C(=O)N[C@H](C(=O)NCC(=O)N[C@@H](CO)C(=O)NCC(=O)N[C@@H](CO)C(=O)N1CCC[C@H]1C(N)=O)[C@@H](C)O)[C@@H](C)O)[C@@H](C)O [compound 47, [N-terminal(C16 diacid-gGlu), des1, 30S, 31G]mimylin] ({C16 diacid-γGlu}-ASELSTAALGRLSAELHELATLPRTETGSGSP-NH2)	≧200 μM	≧200 μM	≧200 μM	≧200 μM	≧200 μM	≧200 μM	≧200 μM	≧200 μM	0.013	
CC(C)C[C@H](NC(=O)[C@H](C)NC(=O)[C@H](C)NC(=O)[C@@H](NC(=O)[C@H](CO)NC(=O)[C@H](CC(C)C)NC(=O)[C@H](CCC(=O)O)NC(=O)[C@H](CO)NC(=O)[C@H](C)NC(=O)COCCOCCNC(=O)CC[C@H](NC(=O)CCCCCCCCCCCCCCCCCCC(=O)O)C(=O)O)[C@@H](C)O)C(=O)NCC(=O)N[C@@H](CCCNC(=N)N)C(=O)N[C@@H](CC(C)C)C(=O)N[C@@H](CO)C(=O)N[C@@H](C)C(=O)N[C@@H](CCC(=O)O)C(=O)N[C@@H](CC(C)C)C(=O)N[C@@H](Cc1cnc[nH]1)C(=O)N[C@@H](CCC(=O)O)C(=O)N[C@@H](CC(C)C)C(=O)N[C@@H](C)C(=O)N[C@H](C(=O)N[C@@H](CC(C)C)C(=O)N1CCC[C@H]1C(=O)N[C@@H](CCCNC(=N)N)C(=O)N[C@H](C(=O)N[C@@H](CCC(=O)O)C(=O)N[C@H](C(=O)NCC(=O)N[C@@H](CO)C(=O)NCC(=O)N[C@@H](CO)C(=O)N1CCC[C@H]1C(N)=O)[C@@H](C)O)[C@@H](C)O)[C@@H](C)O [compound 41, [N-terminal(C20 diacid-gGlu-OEG), des1, 30S, 31G]mimylin] ({C20 diacid-γGlu-AEEA}-ASELSTAALGRLSAELHELATLPRTETGSGSP-NH2)	≧200 μM	≧200 μM	≧200 μM	≧200 μM	≧200 μM	≧200 μM	≧200 μM	≧200 μM	0.044	
